Reference: the Kinase Knowledgebase extract (Sharma et al. 2016)

Key:
MAPK14 (human) = MAPK14 (human) (UniProt Q16539); test: p38 Kinase Inhibition
MAPK14 = MAPK14 (UniProt Q16539); test: p38 --- TNF-alpha Inhibition; conditions: for IC50: thp1
Sequence of MAPK14 (Q16539 whole entry, looked up): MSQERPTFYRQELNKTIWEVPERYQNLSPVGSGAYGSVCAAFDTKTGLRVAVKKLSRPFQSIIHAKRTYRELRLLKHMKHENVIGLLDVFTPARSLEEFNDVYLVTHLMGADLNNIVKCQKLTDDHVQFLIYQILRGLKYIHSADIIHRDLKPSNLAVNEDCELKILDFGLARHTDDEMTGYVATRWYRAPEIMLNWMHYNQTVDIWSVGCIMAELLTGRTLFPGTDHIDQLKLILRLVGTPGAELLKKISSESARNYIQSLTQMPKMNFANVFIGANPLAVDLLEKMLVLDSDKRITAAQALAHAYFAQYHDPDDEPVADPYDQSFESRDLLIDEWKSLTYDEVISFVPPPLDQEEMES

Sequence of MAPK14 (human) (Q16539 whole entry, looked up): as above

IC50 (MAPK14 (human)) [nM] | IC50 (MAPK14) [nM] | inhibition (MAPK14; thp1, concentration not given here) [%] | Structure (SMILES)
3280 | 1560 |  | Fc1ccc(-c2nc3cccccc-3c2-c2ccnc(F)c2)cc1
2850 | 675 |  | CNc1nccc(-c2c3cccccc-3nc2-c2cccc(C(F)(F)F)c2)n1
4960 | 1420 |  | Clc1cccc(-c2nc3cccccc-3c2-c2ccncc2)c1
4760 | 263 |  | Cc1ccc(-c2nc3cccccc-3c2-c2ccncc2)cc1
2790 | 1400 |  | Clc1ccc(-c2nc3cccccc-3c2-c2ccncc2)cc1
2590 | 4510 |  | CSc1nccc(-c2c3cccccc-3nc2-c2ccc(F)cc2)n1
935 | 950 |  | Fc1cc(-c2c3cccccc-3nc2-c2cccc(Cl)c2)ccn1
1340 | 230 |  | Fc1ccc(-c2nc3cccccc-3c2-c2ccncc2)cc1
12100 | 1610 |  | Fc1cc(-c2c3cccccc-3nc2-c2cccc(C(F)(F)F)c2)ccn1
1470 | 160 |  | FC(F)(F)c1cccc(-c2nc3cccccc-3c2-c2ccncc2)c1
24100 |  | 37 | COc1ccc(-c2nc3cccccc-3c2-c2ccncc2)cc1
17100 | 1710 |  | CNc1nccc(-c2c3cccccc-3nc2-c2ccc(F)cc2)n1
